Where two headings read alike, the source gives them in different places. Blank lines part the entries; values can stand above or below the molecule they belong to.
Key:
[1] = target: T1, PDE7A (Homo sapiens, UniProt Q13946); assay: PDE enzymatic profile; assay type: biochemical
T1 construct: purchased Scottish Biochem (Glasgow, Scotland, UK)

[2] = target: T2, PDE7B (Homo sapiens, UniProt Q9NP56); assay: PDE enzymatic profile; assay type: biochemical
T2 construct: purchased Scottish Biochem (Glasgow, Scotland, UK)

[3] = target: T3, PDE8A1 (Homo sapiens, UniProt O60658); assay: PDE enzymatic profile; assay type: biochemical
T3 construct: purchased Scottish Biochem (Glasgow, Scotland, UK)

[4] = target: T4, PDE8B1 (Homo sapiens, UniProt O95263); assay: PDE enzymatic profile; assay type: biochemical
T4 construct: purchased Scottish Biochem (Glasgow, Scotland, UK)

[5] = target: T5, PDE1B (Homo sapiens, UniProt Q01064); assay: PDE enzymatic profile; assay type: biochemical
T5 construct: purchased Scottish Biochem (Glasgow, Scotland, UK)

[6] = target: T6, PDE2A3 (Homo sapiens, UniProt O00408); assay: PDE enzymatic profile; assay type: biochemical; conditions: read-out: GEBR-32a % inhibition, recombinant human PDE expressed in baculovirus, NI = no inhibition
T6 construct: purchased Scottish Biochem (Glasgow, Scotland, UK)

[7] = target: T7, PDE4A1 (Homo sapiens, UniProt P27815); assay: PDE enzymatic profile; assay type: biochemical; conditions: read-out: GEBR-32a % inhibition, recombinant human PDE expressed in baculovirus
T7 construct: purchased Scottish Biochem (Glasgow, Scotland, UK); host or cells: baculovirus system

[8] = target: T8, PDE4A4 (Homo sapiens, UniProt P27815); assay: PDE enzymatic profile; assay type: biochemical; conditions: read-out: GEBR-32a % inhibition, recombinant human PDE expressed in baculovirus
T8 construct: purchased Scottish Biochem (Glasgow, Scotland, UK); host or cells: baculovirus system

[9] = target: T9, PDE4B1 (Homo sapiens, UniProt Q07343); assay: PDE enzymatic profile; assay type: biochemical; conditions: read-out: GEBR-32a % inhibition, recombinant human PDE expressed in baculovirus
T9 construct: purchased Scottish Biochem (Glasgow, Scotland, UK); host or cells: baculovirus system

[10] = target: T10, PDE4B2 (Homo sapiens, UniProt Q07343); assay: PDE enzymatic profile; assay type: biochemical; conditions: read-out: GEBR-32a % inhibition, recombinant human PDE expressed in baculovirus
T10 construct: purchased Scottish Biochem (Glasgow, Scotland, UK); host or cells: baculovirus system

[11] = target: T11, PDE4B3 (Homo sapiens, UniProt Q07343); assay: PDE enzymatic profile; assay type: biochemical; conditions: read-out: GEBR-32a % inhibition, recombinant human PDE expressed in baculovirus
T11 construct: purchased Scottish Biochem (Glasgow, Scotland, UK); host or cells: baculovirus system

[12] = target: T12, PDE5A1 (Homo sapiens, UniProt O76074); assay: PDE enzymatic profile; assay type: biochemical
T12 construct: purchased Scottish Biochem (Glasgow, Scotland, UK)

[13] = target: T13, PDE9A1 (Homo sapiens, UniProt O76083); assay: PDE enzymatic profile; assay type: biochemical; conditions: read-out: GEBR-32a % inhibition, recombinant human PDE expressed in baculovirus, NI = no inhibition
T13 construct: purchased Scottish Biochem (Glasgow, Scotland, UK)

[14] = target: T14, PDE10A1 (Homo sapiens, UniProt Q9Y233); assay: PDE enzymatic profile; assay type: biochemical
T14 construct: purchased Scottish Biochem (Glasgow, Scotland, UK)

[15] = target: T15, PDE11A1 (Homo sapiens, UniProt Q9HCR9); assay: PDE enzymatic profile; assay type: biochemical; conditions: read-out: GEBR-32a % inhibition, recombinant human PDE expressed in baculovirus, NI = no inhibition
T15 construct: purchased Scottish Biochem (Glasgow, Scotland, UK)

[16] = system: HTLA cells; assay: cAMP determination in cultured cells; assay type: cell-based, human; conditions: 100 μM
Procedure: The cells used in this study (human neuroblastoma cell line HTLA-230, HTLA) were grown in Roswell Park Memorial Institute medium (RPMI), with 0.1 mM non-essential aminoacids and 10% fetal bovine serum. At the end of treatments, intracellular cAMP was measured with the DetectX® Direct Cyclic AMP Enzyme Immunoassay Kit (Arbor Assay, MI, USA), following the manufacturer’s protocol.
(§1) Results from cells and slices are presented as fold increase and represent mean ± S.E.M. of the number of experiments reported in the figure legend. Normal distribution was evaluated by Kolmogorov–Smirnov test and then data have been analysed by one-way ANOVA followed by Newman-Keuls or Dunnett’s tests, as appropriate.

[17] = system: rat hippocampal slices; assay: cAMP determination in hippocampal slices; assay type: cell-based; conditions: forskolin 0.1 μM
Procedure: Hippocampal slices (400 μm thick) were obtained from adult Sprague Dawley rats using a McIlwain tissue chopper and pre-incubated in physiological medium[52] […] Finally, slices were left in hot medium (90 °C) for 15 min, sonicated and centrifuged at 10000 g for 15 min. The supernatant was used for cAMP determination, using the same kit as above, and the pellet for protein quantification.
as §1

[18] = system: HTLA cells; assay: Cytotoxicity, lactate dehydrogenase release; assay type: cell-based, human; conditions: 100 μM, 24 hours
Procedure: (§2) At the end of the incubation period, lactate-dehydrogenase release was measured in conditioned media using the Cytoxicity Detection Kit^PLUS (Roche, Germany) according to manufacturer protocols.

[19] = system: HTLA cells; assay: Genotoxicity, phosphorylation of histone H2A.X (Western blot); assay type: cell-based, human; conditions: 100 μM, 24 hours
Procedure: as §2
To evaluate genotoxicity, cells were processed for total protein extraction as described previously. Immunoblots were done according to standard methods, using the following antibodies: mouse monoclonal to gamma H2A.X (2F3, phospho S139) and rabbit polyclonal to Histone H2A.X (Abcam, UK); anti-mouse and anti-rabbit secondary antibodies coupled to horseradish peroxidase (GE Healthcare, UK). Proteins were visualized with an enzyme-linked chemiluminescence detection kit according to the manufacturer’s instructions (GE Healthcare). Chemiluminescence was monitored by exposure to films and signals were analyzed under non-saturating condition with an image densitometer (Bio-Rad, CA, USA).

[20] = system: mice; assay: Ketamine/xylazine induced α2-adrenoceptor-mediated anaesthesia test (emetic-like effect); assay type: in vivo, mouse; conditions: 0.003–3 mg/kg s.c., adult mice
Procedure: The outcome measurement was the total time the animals were anesthetized, measured from anaesthesia induction to the righting reflex (i.e. when mice were back on all four paws). In order to reduce the number of animals for experimentation and to get sufficient group sizes, the experiments were performed three times with 2 recovery days in between. […] Normal distribution of data was evaluated by Kolmogorov–Smirnov and one-way ANOVA was used to compare all conditions.

[21] = Pharmacokinetic analysis, plasma and brain; assay type: in vivo; conditions: male, mouse
Procedure: For blood analysis, 25 μL of plasma were transferred into a 1.5 mL Eppendorf tube and were added with 25 μL of methanol and 25 μL of internal standard (500 ng/mL voriconazole), followed by the addition of 100 μL methanol. As for brains, 100 mg of tissue were placed into a plastic tube and added with 500 μL of methanol to facilitate homogenization, which was carried out using a Fluko F6/10 superfine homogenizer for approximately 1 min. […] A 25 μL aliquot of the homogenized samples was transferred into an Eppendorf tube and added with 20 μL of internal standard (500 ng/mL voriconazole) followed by the addition of 100 μL of methanol. […] AUC0-t: the area under the plasma/brain concentration versus time curve from time 0 to the last measurable concentration was calculated by using the linear trapezoidal rule. Cmax: the maximum observed plasma concentration.

[22] = system: WT and Tg2576 mice; assay: Y-maze continuous alternation task; assay type: in vivo, mouse
Procedure: The apparatus was made of grey Plexiglas with three arms symmetrically placed together at a 120° angle. At the beginning of the trial, each mouse was placed in one of three arms (randomly divided and balanced) and was then allowed to freely explore the apparatus for 6 minutes. The number of entries into a different arm and the order was measured. An entry was only counted if all four paws of the animal were placed completely inside the arm. When a mouse visited all 3 arms consecutively, it made a triad. In between trials, the apparatus was cleaned with a 70% ethanol solution to avoid olfactory cues. […] Of note, there was no statistical difference between testing sessions (day effect; data not shown) and, therefore, both test sessions were pooled. To measure spatial working memory, the percentage of alternations was calculated by taking the number of triads and dividing it through the maximum possible alternations (total entries minus 2) and multiply this by 100. A score of 50% alternations is considered chance level and, therefore, a significant difference from 50% is indicative of functional working memory. Normal distribution of data was evaluated by Kolmogorov–Smirnov and one-way ANOVA was performed to evaluate differences between the conditions. For each condition, one-sample t-test was used for comparison versus the score of 50%.

[23] = system: aged WT and Tg2576 mice; assay: Hippocampal long-term potentiation, fEPSP recordings in slices of chronically treated mice; assay type: in vivo, mouse; conditions: chronic 0.03 mg/kg for 23 days
Procedure: Electrophysiological recordings have been carried out as previously described. […] A concentric bipolar platinum-iridium stimulation electrode and a low-resistance glass recording microelectrode filled with saline solution ([…]) were placed in CA1 stratum radiatum to record the extracellular field excitatory postsynaptic potential (fEPSP). Basal synaptic transmission was assayed by plotting the stimulus voltages against slopes of fEPSP.

[24] = system: mice; set-up: method as in PMID 21649644; conditions: 0.03 and 0.3 mg/kg; same experimental conditions; cited from earlier work
[25] = system: HTLA cells; set-up: method as in PMID 27560284; conditions: 100 μM; same experimental conditions; cited from earlier work
[26] = set-up: method as in PMID 27560284; conditions: parent compound; cited from earlier work
[27] = cited from earlier work
[28] = Dipyridamole 50 μM, read-out: Comparator % inhibition
[29] = read-out: GEBR-32a % inhibition
[30] = read-out: GEBR-32a % inhibition, 10 μM, recombinant human PDE expressed in baculovirus
[31] = sc, brain, 10 mg/kg s.c., BALB/c mice
[32] = sc, plasma, 10 mg/kg s.c., BALB/c mice

T2 sequence (Q9NP56 whole entry): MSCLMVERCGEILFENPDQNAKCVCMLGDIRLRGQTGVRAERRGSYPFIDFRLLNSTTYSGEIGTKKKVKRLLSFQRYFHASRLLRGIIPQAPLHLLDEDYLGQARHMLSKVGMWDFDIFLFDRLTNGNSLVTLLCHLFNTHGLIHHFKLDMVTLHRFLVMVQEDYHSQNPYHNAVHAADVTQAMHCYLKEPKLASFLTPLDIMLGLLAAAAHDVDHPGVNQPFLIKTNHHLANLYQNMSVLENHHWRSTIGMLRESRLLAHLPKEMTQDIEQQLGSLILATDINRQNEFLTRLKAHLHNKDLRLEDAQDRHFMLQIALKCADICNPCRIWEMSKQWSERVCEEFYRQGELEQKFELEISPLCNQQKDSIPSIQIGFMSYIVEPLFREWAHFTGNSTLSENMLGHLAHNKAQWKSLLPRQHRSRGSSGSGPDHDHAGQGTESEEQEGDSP
T1 sequence (Q13946 whole entry): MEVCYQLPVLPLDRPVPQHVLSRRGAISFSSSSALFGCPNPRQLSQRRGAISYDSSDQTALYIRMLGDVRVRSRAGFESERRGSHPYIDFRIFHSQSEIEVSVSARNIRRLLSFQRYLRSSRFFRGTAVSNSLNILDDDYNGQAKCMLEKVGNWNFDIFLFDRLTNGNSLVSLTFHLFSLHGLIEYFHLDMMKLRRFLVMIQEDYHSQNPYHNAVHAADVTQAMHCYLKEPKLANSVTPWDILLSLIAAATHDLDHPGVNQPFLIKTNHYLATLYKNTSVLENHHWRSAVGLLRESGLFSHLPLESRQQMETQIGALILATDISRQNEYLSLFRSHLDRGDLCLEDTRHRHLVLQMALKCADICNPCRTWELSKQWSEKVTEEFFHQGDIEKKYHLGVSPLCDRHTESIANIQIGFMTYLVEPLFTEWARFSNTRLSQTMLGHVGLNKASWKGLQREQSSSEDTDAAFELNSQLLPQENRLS
T3 sequence (O60658 whole entry): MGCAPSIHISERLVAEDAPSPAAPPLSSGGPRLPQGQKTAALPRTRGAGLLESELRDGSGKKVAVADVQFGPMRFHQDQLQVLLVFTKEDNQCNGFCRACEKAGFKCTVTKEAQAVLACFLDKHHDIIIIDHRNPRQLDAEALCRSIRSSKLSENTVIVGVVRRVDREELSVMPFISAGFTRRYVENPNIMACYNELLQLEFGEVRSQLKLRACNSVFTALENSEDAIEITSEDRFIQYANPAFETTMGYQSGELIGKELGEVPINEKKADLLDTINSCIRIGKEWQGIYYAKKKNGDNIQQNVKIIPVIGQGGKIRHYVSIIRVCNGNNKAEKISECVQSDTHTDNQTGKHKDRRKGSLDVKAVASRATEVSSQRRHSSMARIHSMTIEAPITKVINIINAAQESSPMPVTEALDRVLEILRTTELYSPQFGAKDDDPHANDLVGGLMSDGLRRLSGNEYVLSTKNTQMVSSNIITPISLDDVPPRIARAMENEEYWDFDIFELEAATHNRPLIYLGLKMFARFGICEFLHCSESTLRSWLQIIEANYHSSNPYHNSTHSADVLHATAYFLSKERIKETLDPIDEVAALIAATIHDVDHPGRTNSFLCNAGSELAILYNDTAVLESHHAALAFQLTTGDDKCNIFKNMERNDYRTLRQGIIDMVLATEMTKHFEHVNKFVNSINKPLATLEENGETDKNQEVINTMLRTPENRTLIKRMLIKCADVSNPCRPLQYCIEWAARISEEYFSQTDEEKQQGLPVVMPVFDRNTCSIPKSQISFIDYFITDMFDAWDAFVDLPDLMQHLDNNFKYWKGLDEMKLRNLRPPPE
T4 sequence (O95263 whole entry): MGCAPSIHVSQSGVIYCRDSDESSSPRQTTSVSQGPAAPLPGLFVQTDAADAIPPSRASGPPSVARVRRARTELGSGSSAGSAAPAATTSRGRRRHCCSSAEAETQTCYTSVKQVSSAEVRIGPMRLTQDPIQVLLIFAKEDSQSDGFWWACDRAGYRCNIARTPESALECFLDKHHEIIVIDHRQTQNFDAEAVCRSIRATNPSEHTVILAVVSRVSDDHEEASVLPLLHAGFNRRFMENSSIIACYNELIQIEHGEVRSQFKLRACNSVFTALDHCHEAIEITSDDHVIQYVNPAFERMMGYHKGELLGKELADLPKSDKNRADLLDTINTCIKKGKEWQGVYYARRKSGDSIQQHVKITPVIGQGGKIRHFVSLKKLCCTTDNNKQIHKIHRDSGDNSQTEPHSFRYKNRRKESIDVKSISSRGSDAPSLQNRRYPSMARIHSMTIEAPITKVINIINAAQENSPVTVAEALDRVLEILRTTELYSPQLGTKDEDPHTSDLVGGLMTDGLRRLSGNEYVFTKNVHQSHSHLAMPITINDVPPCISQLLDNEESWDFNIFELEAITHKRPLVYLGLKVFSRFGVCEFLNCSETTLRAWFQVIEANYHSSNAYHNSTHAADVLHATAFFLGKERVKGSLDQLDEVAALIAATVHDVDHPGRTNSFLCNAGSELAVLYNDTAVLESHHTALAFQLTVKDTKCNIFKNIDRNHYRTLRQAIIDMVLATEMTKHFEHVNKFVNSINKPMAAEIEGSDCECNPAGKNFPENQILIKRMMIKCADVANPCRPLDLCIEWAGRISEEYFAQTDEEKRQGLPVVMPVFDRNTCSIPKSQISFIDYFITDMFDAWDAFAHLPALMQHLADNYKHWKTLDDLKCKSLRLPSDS
T5 sequence (Q01064 whole entry): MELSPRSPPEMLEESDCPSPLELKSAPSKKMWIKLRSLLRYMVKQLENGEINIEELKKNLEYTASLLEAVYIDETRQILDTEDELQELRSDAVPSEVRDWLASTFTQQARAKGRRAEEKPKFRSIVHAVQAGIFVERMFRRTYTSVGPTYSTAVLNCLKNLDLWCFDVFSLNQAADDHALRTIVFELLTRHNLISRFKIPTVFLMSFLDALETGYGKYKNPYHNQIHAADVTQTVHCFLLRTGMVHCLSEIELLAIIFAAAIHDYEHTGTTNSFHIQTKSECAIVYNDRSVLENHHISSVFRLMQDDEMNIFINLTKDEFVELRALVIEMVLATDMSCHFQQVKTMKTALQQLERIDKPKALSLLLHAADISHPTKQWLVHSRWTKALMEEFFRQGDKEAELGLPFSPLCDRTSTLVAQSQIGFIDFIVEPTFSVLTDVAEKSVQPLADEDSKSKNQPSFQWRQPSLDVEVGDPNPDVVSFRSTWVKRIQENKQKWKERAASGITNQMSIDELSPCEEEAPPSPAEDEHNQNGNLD
T14 sequence (Q9Y233 1-779 isoform Q9Y233-1): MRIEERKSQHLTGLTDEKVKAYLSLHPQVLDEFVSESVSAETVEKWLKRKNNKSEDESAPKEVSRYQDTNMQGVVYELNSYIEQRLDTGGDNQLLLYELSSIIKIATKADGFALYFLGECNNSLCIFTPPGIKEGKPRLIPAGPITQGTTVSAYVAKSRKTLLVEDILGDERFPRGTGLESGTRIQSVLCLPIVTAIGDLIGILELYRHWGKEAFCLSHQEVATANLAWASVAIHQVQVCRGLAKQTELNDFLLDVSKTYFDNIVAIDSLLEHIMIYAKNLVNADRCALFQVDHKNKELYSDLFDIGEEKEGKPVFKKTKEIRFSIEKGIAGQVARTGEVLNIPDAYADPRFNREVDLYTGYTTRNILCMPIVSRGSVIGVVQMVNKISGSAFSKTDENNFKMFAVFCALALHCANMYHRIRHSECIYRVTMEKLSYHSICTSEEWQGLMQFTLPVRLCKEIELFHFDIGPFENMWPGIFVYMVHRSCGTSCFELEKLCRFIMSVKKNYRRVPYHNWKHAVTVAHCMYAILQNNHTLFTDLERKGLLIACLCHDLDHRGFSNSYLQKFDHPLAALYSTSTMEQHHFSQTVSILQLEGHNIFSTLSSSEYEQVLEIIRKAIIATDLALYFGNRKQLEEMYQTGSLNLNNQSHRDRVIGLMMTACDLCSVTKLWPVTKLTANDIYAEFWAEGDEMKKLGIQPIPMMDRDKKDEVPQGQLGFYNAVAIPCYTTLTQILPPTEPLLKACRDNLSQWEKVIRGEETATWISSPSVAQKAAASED
T10 sequence (Q07343 1-564 isoform Q07343-2): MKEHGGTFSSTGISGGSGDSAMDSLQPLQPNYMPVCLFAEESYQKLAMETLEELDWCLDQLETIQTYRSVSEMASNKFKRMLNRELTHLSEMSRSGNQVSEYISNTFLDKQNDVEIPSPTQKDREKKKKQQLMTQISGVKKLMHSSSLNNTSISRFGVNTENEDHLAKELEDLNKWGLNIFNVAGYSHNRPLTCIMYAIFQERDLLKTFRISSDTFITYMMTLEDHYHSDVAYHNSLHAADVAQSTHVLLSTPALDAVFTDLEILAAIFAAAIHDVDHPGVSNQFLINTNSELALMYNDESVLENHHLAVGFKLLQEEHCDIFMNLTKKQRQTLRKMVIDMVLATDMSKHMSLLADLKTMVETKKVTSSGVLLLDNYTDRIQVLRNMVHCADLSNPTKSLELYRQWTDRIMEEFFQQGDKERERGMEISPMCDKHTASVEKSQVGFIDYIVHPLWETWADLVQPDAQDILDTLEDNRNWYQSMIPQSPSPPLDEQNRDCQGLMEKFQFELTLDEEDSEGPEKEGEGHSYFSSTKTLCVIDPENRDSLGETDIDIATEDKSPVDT
T15 sequence (Q9HCR9 445-933): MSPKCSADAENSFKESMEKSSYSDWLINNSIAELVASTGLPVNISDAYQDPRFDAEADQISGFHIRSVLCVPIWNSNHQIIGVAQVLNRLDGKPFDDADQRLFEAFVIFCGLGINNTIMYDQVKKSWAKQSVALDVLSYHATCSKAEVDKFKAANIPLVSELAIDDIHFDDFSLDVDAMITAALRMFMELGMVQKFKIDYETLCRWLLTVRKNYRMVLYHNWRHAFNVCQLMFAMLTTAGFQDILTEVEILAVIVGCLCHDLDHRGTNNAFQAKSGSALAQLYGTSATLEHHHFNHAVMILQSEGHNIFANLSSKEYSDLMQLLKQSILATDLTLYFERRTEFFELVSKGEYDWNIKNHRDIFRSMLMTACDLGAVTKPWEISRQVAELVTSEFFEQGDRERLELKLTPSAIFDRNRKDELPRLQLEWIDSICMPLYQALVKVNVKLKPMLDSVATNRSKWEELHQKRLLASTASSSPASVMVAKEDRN

- Comparator % inhibition ([1]; BRL-50481 10 μM): 78.6 (BRL-50481 10 μM) %
SMILES: Cc1ccc([N+](=O)[O-])cc1S(=O)(=O)N(C)C [BRL-50481, reference compound]

- inhibition at 50 µM [2, 28]: 47.3%
- inhibition at 50 µM [3, 28]: 64.4%
- inhibition at 50 µM [4, 28]: 57.4%
SMILES: OCCN(CCO)c1nc(N2CCCCC2)c2nc(N(CCO)CCO)nc(N3CCCCC3)c2n1 [Dipyridamole, reference compound]

SMILES: OC(CN1CCOCC1)Cn1ccc(-c2ccc(OC(F)F)c(OC3CCCC3)c2)n1 (centres unmarked) [GEBR-32a]
- inhibition at 10 µM [5, 29]: 10.7%
- inhibition at 10 µM [6]: < 0%
- inhibition at 10 µM [7]: 41%
- inhibition at 10 µM [8]: 11%
- inhibition at 10 µM [9]: 41.6%
- inhibition at 10 µM [10]: 26.3%
- inhibition at 10 µM [11]: 39.4%
- inhibition at 10 µM [12, 30]: 4.97%
- inhibition at 10 µM ([1]; read-out: GEBR-32a % inhibition, 10 μM, recombinant human PDE expressed in baculovirus, NI = no inhibition): < 0%
- inhibition at 10 µM [2, 30]: 8.61%
- inhibition at 10 µM [3, 29]: < 0%
- inhibition at 10 µM [4, 30]: 23.5%
- inhibition at 10 µM [13]: < 0%
- inhibition at 10 µM [14, 29]: < 0%
- inhibition at 10 µM [15]: < 0%
- increase of the forskolin-induced elevation of cAMP in cultured cells ([16]; forskolin 1 μM): 12 fold
- increase of cAMP with respect to controls ([16]; without forskolin): 2.5 fold
- EC50 ([17]; Rattus norvegicus, 0.1–100 μM, read-out: apparent EC50, increase of forskolin-induced cAMP production): 1800 nM
- elevation of forskolin-induced cAMP production ([17]; highest concentration tested (100 μM)): 4 fold
- cytotoxicity, lactate dehydrogenase release [18]: did not produce any significant effect
- genotoxicity, phosphorylation of histone H2A.X [19]: did not produce any significant effect
- duration of anaesthesia (emetic-like effect) [20]: did not significantly influence the duration of anaesthesia
- Tmax ([21]; BALB/c, plasma and brain, subcutaneous, 10 mg/kg, absorption and distribution to the brain): 20 min
- half-life ([21]; BALB/c, plasma and brain, subcutaneous, 10 mg/kg, elimination, read-out: half-life (converted)): ~60 min
- Kp ([21]; in vivo, sc, 10 mg/kg s.c., BALB/c mice, read-out: AUC0-t Ratio (Brain/Plasma)): 2.71
- AUC(0-t) [21, 31]: 2330 ng·h/mL
- Cmax [21, 31]: 2610 ng/g
- Tmax [21, 31]: 19.8 min
- half-life ([21]; sc, brain, 10 mg/kg s.c., BALB/c mice, read-out: t1/2 (converted)): 57 min
- AUC(0-t) [21, 32]: 861 ng·h/mL
- Cmax [21, 32]: 993 ng/mL
- Tmax [21, 32]: 19.8 min
- half-life ([21]; sc, plasma, 10 mg/kg s.c., BALB/c mice, read-out: t1/2 (converted)): 57 min
- percentage of alternations, Y-maze ([22]; adult WT mice, administered 30 min before trial, data not shown): not further improved
- percentage of alternations, Y-maze ([22]; aged Tg2576 mice, acute 0.0003–0.3 mg/kg s.c. 30 min before trial): not able to induce any improvement
- percentage of alternations, Y-maze ([22]; aged Tg2576 mice, chronic 0.03 mg/kg for up to 23 days): alternations significantly higher than 50%
- percentage of alternations, Y-maze ([22]; aged WT mice, acute, all doses tested 0.0003–0.3 mg/kg s.c. 30 min before trial): significantly ameliorated the performance
- hippocampal LTP (fEPSP) ([23]; aged Tg2576 mice): rescue the LTP deficit
- hippocampal LTP (fEPSP) ([23]; aged WT mice): clear, though not significant, enhancement of LTP

SMILES: COc1ccc(Cc2nccc3cc(OC)c(OC)cc23)cc1OC [Papaverine, reference compound]
- inhibition at 1 µM ([14]; Papaverine 1 μM, read-out: Comparator % inhibition): 90.7%

SMILES: COc1ccc(C2CNC(=O)C2)cc1OC1CCCC1 (centres unmarked) [Rolipram]
- duration of anaesthesia (emetic-like effect) [24]: significantly shortened anaesthesia time

SMILES: CCCc1nn(C)c2c(=O)[nH]c(-c3cc(S(=O)(=O)N4CCN(C)CC4)ccc3OCC)nc12 [Sildenafil, reference compound]
- inhibition at 10 µM ([5]; Sildenafil 10 μM, read-out: Comparator % inhibition): 74.4%
- inhibition at 0.1 µM ([12]; read-out: Comparator % inhibition): 74.9%

SMILES: COc1ccc(-c2ccn(CC(O)CN3CCOCC3)n2)cc1OC1CCCC1 (centres unmarked) [compound 8a]
- increase of the forskolin-induced elevation of cAMP in cultured cells [25]: 4 fold
- brain/plasma ratio [26]: 0.76

SMILES: O=C(Nc1c(Cl)cncc1Cl)c1ccc(OC(F)F)c(OCC2CC2)c1 [roflumilast]
- brain/plasma ratio [27]: 1

From article PMC5389348 (Scientific Reports, 2017)
